Measured values reported in patent US20260325485A1, “COMPOSITIONS AND METHODS FOR TREATING PANCREATITIS” (The United States Government as represented by the …, priority 2022, published 2026).
“Also recorded” adds a separate entry of the source.

What was measured:
[1] = system: mouse pancreatic acinar cells; assay: Ex-vivo CCK-AP in mouse pancreatic acinar cells treated with simvastatin or MCD; format: cell-based; conditions: simvastatin 4 μM, 3 h or MCD 10 mM, 1 h
Description: (§1) FIGS. 26A-26D preventing cholesterol overload ameliorates ex-vivo pancreatitis. Mouse pancreatic acinar cells were incubated (A, B) with simvastatin (4 μM, 3 h) or (C, D) cholesterol chelator, methyl-β-cyclodextrin (MCD; 10 mM, 1 h) and then subjected to CCK-AP for 1 (D) or 3 h (A, B). Cholesterol content (A, C) necrosis (B), and trypsin activity (D) were measured. Each symbol represents an individual cell preparation. Values are mean±SEM*p<0/05, **p<0.01 vs control; #p<0.05 ##p<0.01; vs CCK, no inhibitor.
Ex vivo pancreatitis models were performed on mouse and human acinar cells, and human pancreas slices by incubation with supramaximal CCK (100 nM) or carbachol (1 mM), as described previously (80, 81).
Activities of cathepsin (Cat) B and L, caspase-3, trypsin, and lysosomal acid lipase (LAL) were measured in pancreatic tissue or cell homogenates and subcellular fractions with fluorogenic assays using substrates specific for CatB (Z-Arg-Arg-AMC), CatL (Z-Phe-Arg-AMC), caspase-3-like ([…]), trypsin (Boc-Gln-Ala-Arg-AMC), as previously described (1-4, 6, 7); and for LAL (4-methylumbelliferyl oleate), as in (17). In measurements of CatL activity, the assay buffer also contained 50 μM CA-074me, a CatB inhibitor. LAL activity was measured in the absence and presence of the LAL inhibitor lalistat (100 μM) as the difference between these values (17).
Total cholesterol content was measured with Cholesterol Assay kit per manufacturer's instructions. Samples of mouse pancreas and liver, cell pellet homogenates, subcellular fractions, isolated mitochondria, and serum were diluted in the reaction buffer containing cholesterol probe and incubated at 37° C. for 1 h in the dark. To measure total cholesterol, the samples were subjected to digestion with cholesterol esterase. To measure non-esterified cholesterol, the esterase was omitted from the assay.

[2] = system: CER/CCK-AP; assay: Effect of simvastatin and BemA in CER/CCK-AP (mouse and ex-vivo model)
Description: FIGS. 25A-25C show reducing cholesterol overload greatly ameliorates experimental pancreatitis. CER-AP responses were measured in (A) AclyAac or (C) WT mice treated with simvastatin or bempedoic acid (BemA). (B) Acinar cells were transfected with ACLA (or mock) siRNA and subjected to ex-vivo CCK-AP. Each symbol represents an individual mouse or cell preparation. Values are mean±SE. **p<0.01, ***p<0.001 vs saline treated control mice (or mock transfection); #p<0.05, ##p<0.01, ###p<0.001 vs CER/CCK-AP in control mice (i.e. without inhibitors) or cells.
as §1
Cholesterol metabolism is disrupted in pancreatitis as a result of lysosomal/autophagy dysfunction. Preventing acinar cell cholesterol overload with simvastatin alleviates AP in one experimental model (CER-AP). As discussed above, lysosomal/autophagy dysfunction is associated with both experimental and human pancreatitis.^6, 7, 9, 13, 17 However, until a recent publication^13 there was very little known on cholesterol metabolism in healthy pancreas, its changes in experimental and human pancreatitis, and role in disease severity. Further, effects of statins and other cholesterol-lowering drugs in pancreas, and the underlying mechanisms, have not been explored. […] This, in turn, stimulates a compensatory increase in cholesterol synthesis, further exacerbating cholesterol overload. It was further shown^13 that inhibition of cholesterol synthesis with simvastatin reduced acinar cell cholesterol overload and the severity of pancreatitis induced with supramaximal cerulein (CER), an ortholog of the hormone cholecystokinin-8 (CCK). The findings^13 reveal a previously unrecognized pathogenic role of cholesterol dysregulation in pancreatitis and indicate normalizing cholesterol metabolism as a novel therapeutic approach for disease treatment.
In summary, the published^13 and current data (FIGS. 23-26) reveal that disruption of acinar cell cholesterol metabolism is a common feature in models of experimental pancreatitis and also prominent in human disease. The key manifestation of cholesterol dyshomeostasis in pancreatitis is acinar cell cholesterol overload. […]

## CCC(C)(C)C(=O)O[C@H]1C[C@@H](C)C=C2C=C[C@H](C)[C@H](CC[C@@H]3C[C@@H](O)CC(=O)O3)[C@H]21 [simvastatin]
[1]
  cholesterol overload in ex-vivo CCK-AP: Reducing
  extent of necrosis in ex-vivo CCK-AP: greatly decreased
  trypsinogen activation in ex-vivo CCK-AP: greatly decreased
[2]
  cholesterol overload, CER/CCK-AP: reduced; also recorded: prevented
  disease severity, CER/CCK-AP: reduced
